Assay [1] concerns the target T1, hNET (Homo sapiens, UniProt P23975). Kind of assay: biochemical. Format: binding.
The target in assay [2] is T1, hNET. To be noted: intact cells, 25°C.
Assay [3] concerns the target T1, hNET. To be noted: read-out: IC50 for inhibition of [^3H]NE uptake; ref Eshleman et al., 1999; cited from earlier work.

Several values for one entry are separate records, joined by “and”; a condition that tells them apart may be missing. Equal values may be shown once. Read-outs that look alike come from different tables or passages of the source.

T1 sequence (P23975 whole entry): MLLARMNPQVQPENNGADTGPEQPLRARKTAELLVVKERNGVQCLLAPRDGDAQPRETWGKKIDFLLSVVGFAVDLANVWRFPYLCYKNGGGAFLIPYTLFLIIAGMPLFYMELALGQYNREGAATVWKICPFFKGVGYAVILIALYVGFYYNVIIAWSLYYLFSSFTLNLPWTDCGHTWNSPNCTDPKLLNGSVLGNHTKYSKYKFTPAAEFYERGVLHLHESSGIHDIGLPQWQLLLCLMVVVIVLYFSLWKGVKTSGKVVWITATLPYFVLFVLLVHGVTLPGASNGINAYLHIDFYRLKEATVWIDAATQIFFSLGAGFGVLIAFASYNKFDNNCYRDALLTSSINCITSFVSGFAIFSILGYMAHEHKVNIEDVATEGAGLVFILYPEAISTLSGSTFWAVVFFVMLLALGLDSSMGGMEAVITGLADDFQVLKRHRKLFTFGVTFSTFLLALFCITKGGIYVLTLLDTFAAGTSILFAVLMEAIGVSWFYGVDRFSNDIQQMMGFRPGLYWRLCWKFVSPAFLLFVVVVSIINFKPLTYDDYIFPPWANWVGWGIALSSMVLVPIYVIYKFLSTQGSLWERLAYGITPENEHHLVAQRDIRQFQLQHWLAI

For `CN1[C@@H]2CC[C@H]1C[C@@H](OC(c1ccccc1)c1ccccc1)C2` [benztropine], the “Potency in inhibiting [^3H]CFT binding relative to [^3H]NE uptake (Ki ratio)” value at hNET [1] is reported as “equipotent”.

In the case of `COC(=O)[C@H]1[C@@H](c2ccc(F)cc2)C[C@@H]2CC[C@H]1N2C` [CFT, 2β-carbomethoxy-3β-(4-fluorophenyl)-tropane], the “Time to maximal [^3H]CFT binding” value at hNET [2] and at hNET [1] was 15 min each time. The Kd is 18 ± 5 nM on hNET [1] (Kd of CFT); 35.7 nM and 22.1 nM and 34.5 nM on hNET [1] (Kd of [^3H]CFT binding). In addition, at hNET [3], the IC50 was 33.3 nM.

Turning to `OC1(c2ccc(Cl)cc2)c2ccccc2C2=NCCN21` (stereo not shown) [mazindol], the “Potency in inhibiting [^3H]CFT binding relative to [^3H]NE uptake (Ki ratio)” value on hNET [1] was “weaker”.

Broadly, the Kd is the constant that tells how readily two partners part at equilibrium. Lower therefore signals tighter binding. As usually defined, the IC50 is the point on the concentration scale where inhibition reaches its midpoint.

Values taken from publication PMC3221803 (Journal of neuroscience methods, 2011).
